In data set [1] the test system is IIIB strain of HIV. The note with it: virus adsorption interval of 1 h; cited from earlier work.
For another data set, the system named is HIV-1 (RF). In kind it is cell-based. The note with it: 6 days, MTS, control, row printed in μM, read-out: Ic50, activity against HIV-1 in CEM-SS cells. On the procedure: (§1) CEM-SS cells (obtained from the AIDS Research and Reference Reagent Repository, Bethesda, Md.) are passaged in T-75 flasks in tissue culture media (RP 1640 medium (no phenol red) with 10% Fetal Bovine Serum (heat inactivated), 2 mM L-glutamine, 100 U/mL penicillin, 100 μg/mL streptomycin, and 10 μg/mL gentamycin). On the day preceding the assay, the cells are split 1:2. On the day of assay the cells are collected by centrifugation, washed twice with tissue culture medium and resuspended in fresh tissue culture medium. Total cell and viability counting is performed using a hemacytometer. Cell viability prior to the assay is determined by Trypan Blue dye exclusion and must exceed 95%. A pretitered aliquot of HIV-1 RF (AIDS Research and Reference Reagent Repository, Bethesda, Md.), CEM-SS cells and compound are placed into microtiter plates. Each plate contains cell control wells (cells only), virus control wells (cell plus virus), drug toxicity control wells (cells plus drugs only), drug calorimetric control wells (drugs only) as well as experimental wells (drug plus cells plus virus) . Cultures are incubated for 6 days at 37° C., 5% CO2 and antiviral activity and compound toxicity determined by MTS staining.

The test system of the next data set is CEM-SS cells. The procedure: as §1
The subject of data set [2] is herpes simplex virus type 1 (HSV-1) strain HF. Put plainly: Virus induced cytopathic effects (CPE) inhibition assay in Vero cells (MTS). In kind it is cell-based. The note with it: Human alphaherpesvirus 1, Vero, read-out: Ic50 against HSV-1 virus. An excerpt:
(§2) A virus induced cytopathic effects (CPE) inhibition assay procedure using Promega's cell titer aqueous one solution (MTS, metabolic dye similar to XTT) is employed to evaluate compounds for antiviral activity against herpes simplex virus type 1 (HSV-1) strain HF in Vero cells. Vero cells are pregrown in 96 well tissue culture plates using Dulbecco's modified eagle's media (DMEM) supplemented with 10% heat inactivated fetal bovine serum (FBS), L-glutamine, penicillin and streptomycin. Antiviral assays are designed to test six half log dilution of each compound in triplicate against the challenge virus in microtiter plate wells containing host cell monolayers. To each of the replicate cell cultures is added 50 uL of the test drug solution and 50 uL of virus suspension. Cell control containing medium alone, virus infected controls containing medium and virus, drug cytotoxicity controls containing medium and each drug concentration, reagent controls containing culture medium only (no cells), and drug calorimetric controls containing drug and medium (no cells) are run simultaneously with the test samples. The plates are incubated at 37° C. in a humidified atmosphere containing 5% CO2 until maximum CPE is observed in the untreated virus control cultures (day 5). CPE inhibition is determined by the dye (MTS) uptake procedure. […]

A short description of data set [3]: Drug cytotoxicity in Vero cells (MTS), HSV-1 assay. In kind it is cell-based. The note with it: African green monkey.
Text: as §2

Data set [4] concerns HeLa CD4 LTR β-gal cells. In words: Compound toxicity (XTT, sister plate) in the fusion assay. In kind it is cell-based. On the procedure:
The fusion assay assesses the ability of compounds to block cell-to-cell fusion mediated by HIV-1 Env and CD4 expressed on separate cells. This assay is sensitive to inhibitors of both the gp120/CD4 interaction and inhibitors of the X4 coreceptor. First, 5×10^3 HeLa CD4 LTR β-gal cells are placed in microtiter wells and incubated overnight. The following day the media is removed and the HeLa CD4 LTR β-gal cells are incubated for 1 h at 37° C. in fresh media with test compound. Following the incubation 5×10^3 HL2/3 cells are added and the incubation continued for 40 to 48 h. At 40 to 48 h β-galactosidase enzyme expression is detected by chemiluminescence (Tropix Gal-screen™, Tropix, Bedford, Mass.). Compound toxicity is monitored on a sister plate using XTT dye reduction. All determinations are performed in triplicate with serial ½ Log10 dilution of the test materials.
(In general: Tetrazolium dyes change colour on reduction, which living cells bring about.)

Data set [5] concerns HeLa CD4 LTR β-gal cells. In words: Compound toxicity (XTT, sister plate) in the virus attachment assay. Format: cell-based. On the procedure:
(§3) This assay is designed to detect compounds that interact with the cell and block virus attachment, and/or compounds that interact with the forming attachment/fusion complex. The attachment assay is performed with HeLa CD4 LTR β-gal cells. HeLa CD4 LTR β-gal cells are routinely cultured with the required selection antibiotics. Twenty-four hours prior to initiation of the assay the cells are trypsinized, counted, and 1×10^4 cells placed in a 0.2 cm well in media without selection antibiotics. At 24 h media is removed and compound in media placed on the cells and incubated for 15 min at 37° C. […] At the end of the incubation, the wells are washed 3 times with media and the culture continued for 40 to 48 h. At termination of the assay, media is removed and β-galactosidase enzyme expression determined by chemiluminescence per manufacturer instructions (Tropix Gal-screen™, Bedford Mass.) by a single step chemiluminescent method using a single solution to lyse the cells and detect β-galactosidase enzyme activity. Compound toxicity is monitored on a sister plate by XTT dye reduction. All determinations are performed in triplicate with serial ½ Log10 dilution of the test materials.

In data set [6] the test system is IIIB strain of HIV. Put plainly: Virus attachment assay (HeLa CD4 LTR β-gal cells). Format: cell-based. The note with it: Human immunodeficiency virus 1, 1 h adsorption. The procedure:
as §3

The subject of data set [7] is vaginal/cervical epithelial and other cells. The note with it: concentrations as low as; cited from earlier work.

The text below walks through data of patent publication US20020102230A1, “Method for inactivating pathogens” (priority 2000, published 2002).

Values after ≈ are worked out from the molar mass of the structure shown.

Usually IC50 stands for the concentration at which inhibition is half-maximal. One may read the CC50 as the concentration that lowers cell viability or growth by half. With `Cc1cn([C@H]2C[C@H](N=[N+]=[N-])[C@@H](CO)O2)c(=O)[nH]c1=O` [AZT], the “Activity in the virus attachment assay (in words)” value in the data set on IIIB strain of HIV [1] is “not active”. Moreover, in the data set on HIV-1 (RF), the IC50 worked out at 0.005 µM. This compound also returned a CC50 in the data set with CEM-SS cells of over 1000 nM.

With `Nc1nc2c(ncn2COCCO)c(=O)[nH]1` [Acyclovir], the IC50 in [2] was determined as 2700 nM. In data set [3], this compound returned a CC50 at 5 day of over 10 µg/mL.

`COc1cc(-c2ccc(/N=N/c3ccc4c(S(=O)(=O)O)cc(S(=O)(=O)O)c(N)c4c3O)c(OC)c2)ccc1/N=N/c1ccc2c(S(=O)(=O)O)cc(S(=O)(=O)O)c(N)c2c1O` [Chicago Sky Blue]: the “Fusion Assay TC50” value in the data set on HeLa CD4 LTR β-gal cells [4] is over 10 µg/mL. In addition, the “Attachment Assay TC50” value in the data set on HeLa CD4 LTR β-gal cells [5] was over 10 µg/mL. The compound further registered an IC50 with IIIB strain of HIV [6] of 0.32 µg/mL (≈ 0.354 µM).

Turning to Nonoxynol-9, the “Concentration that can injure vaginal/cervical epithelial and other cells” value in data set [7] was “about 0.0005%”.
